ChEMBL document CHEMBL3351285, “Synthesis of chlorinated flavonoids with anti-inflammatory and pro-apoptotic activities in human neutrophils” (Eur J Med Chem, 2014)
pIC50: −log10 of the molar value.

Key:
Neutrophil [1] = test: Inhibition of PMA-induced oxidative burst in human neutrophils by amplex red assay; type: functional, cell-based
Neutrophil [2] = test: Inhibition of PMA-induced oxidative burst in human neutrophils by APF assay; type: functional, cell-based
Neutrophil [3] = test: Induction of apoptosis in human neutrophils assessed as necrotic cells at 50 uM after 4 hrs by Annexin-V-FLUOS staining based flow cytometry (reference value: 0.1%); type: functional
Neutrophil [4] = test: Inhibition of PMA-induced oxidative burst in human neutrophils by chemiluminescence assay; type: functional, cell-based
[5] = Cytotoxicity against human neutrophils assessed as cell viability at 50 uM after 4 hrs by trypan blue assay; type: cell-based, Neutrophil; details: read-out: Activity
Neutrophil [6] = test: Induction of apoptosis in human neutrophils assessed as late apoptotic cells at 50 uM after 4 hrs by Annexin-V-FLUOS staining based flow cytometry (reference value: 0.5%); type: functional
Neutrophil [7] = test: Induction of apoptosis in human neutrophils assessed as viable cells at 50 uM after 4 hrs by Annexin-V-FLUOS staining based flow cytometry (reference value: 89.8%); type: functional; details: read-out: Activity
Neutrophil [8] = test: Induction of apoptosis in human neutrophils assessed as early apoptotic cells at 50 uM after 4 hrs by Annexin-V-FLUOS staining based flow cytometry (reference value: 9.7%); type: functional
Neutrophil [9] = test: Induction of apoptosis in human neutrophils assessed as early apoptotic cells at 50 uM after 4 hrs by Annexin-V-FLUOS staining based flow cytometry in presence of Z-DEVD-FMK caspase 3 (reference value: 10.1%); type: functional
Neutrophil [10] = test: Induction of apoptosis in human neutrophils assessed as viable cells at 50 uM after 4 hrs by Annexin-V-FLUOS staining based flow cytometry in presence of Z-DEVD-FMK caspase 3 (reference value: 89.0%); type: functional; details: read-out: Activity
Neutrophil [11] = test: Induction of apoptosis in human neutrophils assessed as late apoptotic cells at 50 uM after 4 hrs by Annexin-V-FLUOS staining based flow cytometry in presence of Z-DEVD-FMK caspase 3 (reference value: 0.8%); type: functional
Neutrophil [12] = test: Induction of apoptosis in human neutrophils assessed as necrotic cells at 50 uM after 4 hrs by Annexin-V-FLUOS staining based flow cytometry in presence of Z-DEVD-FMK caspase 3 (reference value: 0.0%); type: functional
Neutrophil [13] = test: Inhibition of PMA-induced oxidative burst in human neutrophils at 50 uM by APF assay; type: functional
Neutrophil [14] = test: Inhibition of PMA-induced oxidative burst in human neutrophils at 50 uM by chemiluminescence assay; type: functional
Neutrophil [15] = test: Inhibition of PMA-induced oxidative burst in human neutrophils at 50 uM by amplex red assay; type: functional

SMILES	pIC50 (Neutrophil [1])	pIC50 (Neutrophil [2])	pIC50 (Neutrophil [4])	Activity (Neutrophil [3]) [%]	viability at 4 h, 50 µM [5] [%]	Activity (Neutrophil [6]) [%]	viability at 50 µM (Neutrophil [7]) [%]	Activity (Neutrophil [8]) [%]	Activity (Neutrophil [9]) [%]	viability at 50 µM (Neutrophil [10]) [%]	Activity (Neutrophil [11]) [%]	Activity (Neutrophil [12]) [%]	inhibition at 50 µM (Neutrophil [13]) [%]	inhibition at 50 µM (Neutrophil [14]) [%]	inhibition at 50 µM (Neutrophil [15]) [%]
O=c1cc(-c2ccc(O)c(O)c2)oc2cc(O)cc(O)c12 [LUTEOLIN]	5.77	5.66	5.28	0.1	98	1.1	78.6	20.2							
O=c1c(O)c(-c2ccc(O)c(O)c2)oc2cc(O)cc(O)c12 [QUERCETIN]	5.57	5.74	5.55	0.1	98	0.6	84.7	14.6							
O=c1cc(-c2ccccc2)oc2ccccc12 [FLAVONE]					98								< 40	< 40	< 40

Now from value to molecule, other results behind:

pIC50 (Neutrophil [1])	pIC50 (Neutrophil [2])	pIC50 (Neutrophil [4])	SMILES	Activity (Neutrophil [3]) [%]	viability at 4 h, 50 µM [5] [%]	Activity (Neutrophil [6]) [%]	viability at 50 µM (Neutrophil [7]) [%]	Activity (Neutrophil [8]) [%]	Activity (Neutrophil [9]) [%]	viability at 50 µM (Neutrophil [10]) [%]	Activity (Neutrophil [11]) [%]	Activity (Neutrophil [12]) [%]	inhibition at 50 µM (Neutrophil [13]) [%]	inhibition at 50 µM (Neutrophil [14]) [%]	inhibition at 50 µM (Neutrophil [15]) [%]
5.77	5.74	5.34	O=c1c(Cl)c(-c2ccc(O)c(O)c2)oc2c(Cl)c(O)cc(O)c12		98										
5.21	5.14	5.47	O=c1cc(-c2ccc(O)c(O)c2)oc2c(Cl)c(O)c(Cl)c(O)c12	0.1	98	0.9	83.7	15.3							
5.85	6.40	5.70	O=c1c(Cl)c(-c2ccc(O)c(O)c2)oc2cc(O)cc(O)c12		98										
5.80	5.59	5.59	O=c1cc(-c2ccc(O)c(O)c2)oc2c(Cl)c(O)cc(O)c12	0	98	0.5	74.1	25.3	9.6	89.4	1	0			
